Like-named read-outs stand apart in the source and are kept apart here.
Columns and labels:
[1] = tested on: mitochondrial membrane potential; format: cell-based, mouse
reactive oxygen species = format: cell-based, mouse
nuOXPHOS transcripts = format: cell-based, mouse
[2] = tested on: cellular dehydrogenase activity
mtOXPHOS transcripts = format: cell-based, mouse
cytochrome c = format: cell-based, mouse
OXPHOS gene expression = format: cell-based, mouse
[3] = normalized composite Z-score vs mock-treated (DMSO) wells, Conc 20 μM
[4] = composite Z-score vs DMSO wells, Conc 20 μM
[5] = composite Z-score vs DMSO, Conc 20 μM
[6] = composite Z-score vs mock-treated (DMSO) wells, Conc 20 μM
[7] = 20 μM, composite Z-score vs DMSO
[8] = Conc 20 μM, normalized score vs mock-treated (DMSO) wells
[9] = composite Z-score vs DMSO, Conc 20.18 μM

CC1=CC2C(C(C)C)CCC(C)(O)C2CC1 (centres unmarked) [cadin-4-en-10-ol]
ΔΨm [1, 3]: −0.297 | ROS (reactive oxygen species; [3]): 0.180 | nucOX (nuOXPHOS transcripts; [3]): −0.244 | MTT [2, 3]: −0.041 | mitoOX (mtOXPHOS transcripts; [3]): −1.252 | cyt c (cytochrome c; [3]): 0.328 | Viability (C2C12 myotubes; [3]): −0.101 | GE-HTS (OXPHOS gene expression; [3]): −0.610

CC1OC(OC2C(O)COC(OC3C(C)OC(OC4C(OC(=O)C56CCC(C)(C)CC5C5=CCC7C8(C)CCC(OC9OC(CO)C(O)C(O)C9O)C(C)(C)C8CCC7(C)C5(C)CC6O)OCC(O)C4O)C(O)C3O)C2O)C(O)C(O)C1O (centres unmarked) [chrysanthellin A]
ΔΨm [1, 3]: −1.860 | ROS (reactive oxygen species; [3]): −1.565 | nucOX (nuOXPHOS transcripts; [3]): −0.394 | MTT [2, 3]: −4.661 | mitoOX (mtOXPHOS transcripts; [3]): 0.474 | cyt c (cytochrome c; [3]): −4.088 | Viability (C2C12 myotubes; [3]): −4.075 | GE-HTS (OXPHOS gene expression; [3]): −0.126

CCc1nc(N)nc(N)c1-c1ccc(Cl)cc1 [pyrimethamine]
ΔΨm [1, 4]: −0.696 | ROS (reactive oxygen species; [4]): 0.329 | nucOX (nuOXPHOS transcripts; [4]): −0.526 | MTT [2, 4]: −1.810 | mitoOX (mtOXPHOS transcripts; [4]): −0.825 | cyt c (cytochrome c): 1.048 | cyt c (cytochrome c; [4]): −0.306 | Viability (C2C12 myotubes; [4]): 0.994 | GE-HTS (OXPHOS gene expression; [4]): −0.657

COc1ccc(-c2cc(=O)c3c(O)c(OC)c(O[C@@H]4O[C@H](CO[C@@H]5O[C@@H](C)[C@H](O)[C@@H](O)[C@H]5O)[C@@H](O)[C@H](O)[C@H]4O)cc3o2)cc1 [pectolinarin]
ΔΨm [1, 3]: −0.280 | ROS (reactive oxygen species; [3]): 1.058 | nucOX (nuOXPHOS transcripts; [3]): −1.292 | MTT [2, 3]: −0.475 | mitoOX (mtOXPHOS transcripts; [3]): −1.349 | cyt c (cytochrome c; [3]): −0.739 | Viability (C2C12 myotubes; [3]): −0.100 | GE-HTS (OXPHOS gene expression; [3]): −1.381

COC1=C(O)C(=O)c2c(cc3oc(C(C)=O)c(O)c3c2O)C1=O [rhodocladonic acid]
ΔΨm [1, 5]: 0.068 | ROS (reactive oxygen species; [5]): 0.733 | nucOX (nuOXPHOS transcripts; [5]): 0.393 | MTT [2, 5]: −1.057 | mitoOX (mtOXPHOS transcripts; [5]): 0.072 | cyt c (cytochrome c; [5]): 1.150 | Viability (C2C12 myotubes; [5]): −0.416 | GE-HTS (OXPHOS gene expression; [5]): 0.294

COC(=O)c1cccc2cc(OC)c(OC)c(OC)c2c1=O
ΔΨm [1, 6]: −0.254 | ROS (reactive oxygen species; [6]): 0.800 | nucOX (nuOXPHOS transcripts; [6]): 0.287 | MTT [2, 6]: −2.317 | mitoOX (mtOXPHOS transcripts; [6]): 0.117 | cyt c (cytochrome c; [6]): −0.229 | Viability (C2C12 myotubes; [6]): −0.836 | GE-HTS (OXPHOS gene expression; [6]): 0.231

CC(C)C[C@H]1C(=O)N2CCC[C@H]2[C@]2(O)O[C@](NC(=O)[C@@H]3C=C4c5cccc6[nH]c(Br)c(c56)C[C@H]4N(C)C3)(C(C)C)C(=O)N12 [bromocriptine]
ΔΨm [1, 7]: 0.037 | ROS (reactive oxygen species; [7]): 0.176 | nucOX (nuOXPHOS transcripts; [7]): 0.199 | MTT [2, 7]: −1.667 | mitoOX (mtOXPHOS transcripts; [7]): −0.322 | cyt c (cytochrome c; [7]): −0.064 | Viability (C2C12 myotubes; [7]): 1.142 | GE-HTS (OXPHOS gene expression; [7]): 0.006

COC(=O)N/N=C/c1c[n+]([O-])c2ccccc2[n+]1[O-] [carbadox]
ΔΨm [1, 5]: −1.394 | ROS (reactive oxygen species; [5]): −0.079 | nucOX (nuOXPHOS transcripts; [5]): −0.599 | MTT [2, 5]: −1.334 | mitoOX (mtOXPHOS transcripts; [5]): −1.076 | cyt c (cytochrome c; [5]): −0.250 | Viability (C2C12 myotubes; [5]): −0.905 | GE-HTS (OXPHOS gene expression; [5]): −0.802

COc1cc2c3cc1Oc1cc(ccc1O)CC1c4c(cc(OC)c(O)c4Oc4ccc(cc4)CC3N(C)CC2)CCN1C (centres unmarked) [bebeerine]
ΔΨm (composite Z-score) [1, 8]: −0.800 | ROS (composite Z-score) (reactive oxygen species; [8]): 0.759 | nucOX (composite Z-score) (nuOXPHOS transcripts; [8]): −0.028 | MTT (composite Z-score) [2, 8]: −1.681 | mitoOX (composite Z-score) (mtOXPHOS transcripts; [8]): 0.119 | cyt c (composite Z-score) (cytochrome c; [8]): 0.389 | Viability (composite Z-score) (C2C12 myotubes; [8]): −0.728 | GE-HTS (composite Z-score) (OXPHOS gene expression; [8]): −0.005

CC1(C)C2CC(=O)O[C@@]3(C)C4=CC(=O)O[C@@H](c5ccoc5)[C@]4(C)CCC3[C@@]2(C)C=C[C@H]1O (some centres unmarked) [deoxyandirobin lactone]
ΔΨm [1, 6]: −0.395 | ROS (reactive oxygen species; [6]): 0.837 | nucOX (nuOXPHOS transcripts; [6]): −1.558 | MTT [2, 6]: −1.509 | mitoOX (mtOXPHOS transcripts; [6]): −1.179 | cyt c (cytochrome c; [6]): 0.893 | Viability (C2C12 myotubes; [6]): 0.281 | GE-HTS (OXPHOS gene expression; [6]): −1.510

COC(=O)[C@@H]1OC(=O)C2OC23[C@@]1(C)CCC1[C@@]2(C)CCC(=O)C(C)(C)C2C[C@@H](OC(C)=O)[C@]13C (some centres unmarked) [dihydrogedunic acid, methyl ester]
ΔΨm [1, 6]: −0.320 | ROS (reactive oxygen species; [6]): 0.411 | nucOX (nuOXPHOS transcripts; [6]): 0.141 | MTT [2, 6]: −1.062 | mitoOX (mtOXPHOS transcripts; [6]): 0.438 | cyt c (cytochrome c; [6]): −0.443 | Viability (C2C12 myotubes; [6]): 0.103 | GE-HTS (OXPHOS gene expression; [6]): 0.244

C=C1C(=O)O[C@@H]2C[C@@]3(C)CCC[C@H](C)C3=C[C@H]12 [helenine]
ΔΨm [1, 5]: −3.676 | ROS (reactive oxygen species; [5]): −2.409 | nucOX (nuOXPHOS transcripts; [5]): −2.240 | MTT [2, 5]: −6.498 | mitoOX (mtOXPHOS transcripts; [5]): −1.624 | cyt c (cytochrome c; [5]): −5.312 | Viability (C2C12 myotubes; [5]): −4.599 | GE-HTS (OXPHOS gene expression; [5]): −2.156

CC(=O)Nc1ccc(OC(=O)c2ccccc2O)cc1 [acetaminosalol]
ΔΨm [1, 4]: −0.707 | ROS (reactive oxygen species; [4]): 0.308 | nucOX (nuOXPHOS transcripts; [4]): 0.145 | MTT [2, 4]: −0.142 | mitoOX (mtOXPHOS transcripts; [4]): −0.060 | cyt c (cytochrome c; [4]): 0.465 | Viability (C2C12 myotubes; [4]): 0.144 | GE-HTS (OXPHOS gene expression; [4]): 0.083

NCCCC(=O)O [gamma-aminobutyric acid]
ΔΨm [1, 4]: 0.550 | ROS (reactive oxygen species; [4]): 0.209 | nucOX (nuOXPHOS transcripts; [4]): 0.212 | MTT [2, 4]: −0.777 | mitoOX (mtOXPHOS transcripts; [4]): −0.693 | cyt c (cytochrome c; [4]): −0.038 | Viability (C2C12 myotubes; [4]): 1.043 | GE-HTS (OXPHOS gene expression; [4]): −0.119

NC(=O)N/N=C/c1ccc([N+](=O)[O-])o1 [nitrofural]
ΔΨm [1, 9]: −0.518 | ROS (reactive oxygen species; [9]): 0.446 | nucOX (nuOXPHOS transcripts; [9]): −0.010 | MTT [2, 9]: −0.852 | mitoOX (mtOXPHOS transcripts; [9]): −0.750 | cyt c (cytochrome c; [9]): 0.342 | Viability (C2C12 myotubes; [9]): 0.584 | GE-HTS (OXPHOS gene expression; [9]): −0.260

C/C1=C\CC/C(C)=C/CC(C)(C)/C=C/C1 [humulene]
ΔΨm [1, 3]: −0.232 | ROS (reactive oxygen species; [3]): 0.679 | nucOX (nuOXPHOS transcripts; [3]): −0.188 | MTT [2, 3]: −1.208 | mitoOX (mtOXPHOS transcripts; [3]): 0.060 | cyt c (cytochrome c; [3]): −0.100 | Viability (C2C12 myotubes; [3]): −0.070 | GE-HTS (OXPHOS gene expression; [3]): −0.096

CC(C)(O)[C@H]1CC[C@]2(C)[C@H]3CC[C@@H]4[C@@]5(C)CCCC(C)(C)[C@@H]5[C@@H](O)C[C@@]4(C)[C@]3(C)CC[C@@H]12 [zeorin]
ΔΨm [1, 3]: −0.941 | ROS (reactive oxygen species; [3]): 0.166 | nucOX (nuOXPHOS transcripts; [3]): 0.278 | MTT [2, 3]: −0.387 | mitoOX (mtOXPHOS transcripts; [3]): 0.571 | cyt c (cytochrome c; [3]): 0.088 | Viability (C2C12 myotubes; [3]): 0.495 | GE-HTS (OXPHOS gene expression; [3]): 0.381

COc1cc(OC)c2c(c1)O[C@H](c1ccc(OC)c(OC)c1)[C@@H](O)C2 [catechin tetramethylether]
ΔΨm [1, 3]: −0.172 | ROS (reactive oxygen species; [3]): −0.094 | nucOX (nuOXPHOS transcripts; [3]): −1.106 | MTT [2, 3]: −0.573 | mitoOX (mtOXPHOS transcripts; [3]): −0.798 | cyt c (cytochrome c; [3]): 0.586 | Viability (C2C12 myotubes; [3]): 0.435 | GE-HTS (OXPHOS gene expression; [3]): −1.052

C#CCCCCCCCCCCCC(O)CC(O)CO (centres unmarked) [avocadyne]
ΔΨm [1, 5]: −0.029 | ΔΨm [1, 3]: −0.266 | ROS (reactive oxygen species; [5]): 0.611 | ROS (reactive oxygen species; [3]): 0.322 | nucOX (nuOXPHOS transcripts; [5]): −1.019 | nucOX (nuOXPHOS transcripts; [3]): 0.457 | MTT [2, 5]: −0.646 | MTT [2, 3]: −0.369 | mitoOX (mtOXPHOS transcripts; [5]): −0.897 | mitoOX (mtOXPHOS transcripts; [3]): 0.242 | cyt c (cytochrome c; [5]): −0.049 | cyt c (cytochrome c; [3]): 0.738 | Viability (C2C12 myotubes; [5]): −0.546 | Viability (C2C12 myotubes; [3]): 0.816 | GE-HTS (OXPHOS gene expression; [5]): −1.062 | GE-HTS (OXPHOS gene expression; [3]): 0.405

From US20090143279A1 (priority 2007, published 2009)
